This note sets out measurements from a melting point compilation (Tetko et al.; mined from patent text by program, amines drawn as free bases though some values may be those of a salt).

For orientation: melting point means the temperature of the solid-liquid transition.

As for `CN1CCN(c2cccc3c2C[C@H](NC(=O)c2ccc(-c4ccccc4)cc2)CC3)CC1`, the melting point was in the range of 232 to 233 °C. As for `Cn1ncc(C(=O)O)c1C(=O)Nc1ccn2nc(-c3ccnc(F)c3)nc2c1`, the figure is above 290 °C; as for `NC(Cc1ccccc1)C(=O)NC1N=C(c2ccccc2)c2ccccc2NC1=O` (configuration not stated), 208 to 210 °C. For `CCOC(=O)c1cc(Br)cc2c(=O)c(OCCCN3CCN(Cc4ccc5ccccc5n4)CC3)c(-c3ccccc3)oc12`, the melting point lay in the range of 125 to 126 °C. The value for `C[C@@H](O)[C@H](NC(=O)OC(C)(C)C)C(=O)NOCc1ccccc1` was 87 °C. The value for `Nc1nc2cccnc2n1Cc1ccco1` was 193 °C; that for `Cc1ccc(Cn2ncn(-c3nc(C)c(C(=O)NCc4csc(C(C)C)n4)s3)c2=O)cc1` was 151 to 153 °C; that for `CCOC(=NC(=O)c1ccccc1)N1Cc2ccccc2-c2ccccc2C1` was 116 to 117 °C. With `CNC(=O)c1cc(Cl)cc(C)c1NC(=O)c1cc(Br)nn1-c1ncccc1Cl`, the melting point was 162 to 164 °C.

`COc1cccc2c1nc(-c1c(F)cccc1F)n2Cc1c(F)cccc1F` registered a melting point of 154 to 155 °C.

Regarding `Cc1c(N)c(C)c(C(C)C)c2c1CC(C)(CN1CCC(c3ccccc3)CC1)O2` (configuration not stated), the melting point is 128 to 131 °C.

`O=C1OCCn2c1cc(=O)c(O)c2C(O)c1ccc(F)cc1` (configuration not stated) returned a melting point of 221 to 225 °C. As for `COc1ccc(OCCc2ccccc2)c(CC(=O)O)c1`, the figure is 56.5 to 57.5 °C; as for `CC(C)(C)C(=O)Nc1onc2c1CCC2`, 113 °C. The value for `CC(C)(C)OC(=O)NCCc1ccc(Oc2c(Cl)cnc(C(F)(F)F)c2Cl)cc1` was 137 to 140 °C. As for `CC(=O)c1cccc(Nc2cc(C)nc(N)n2)c1`, the figure is 194 to 196 °C; as for `NC(=O)c1ccc(N[C@H]2CC[C@H](N)CC2)cc1F`, 166 to 167 °C. `c1ccc2c(c1)CCc1ccccc1C2=NCC1CC1` had a melting point of 98 to 99 °C. As for `O=C1c2ccccc2-n2c(nc3ccccc3c2=O)CN1CCc1ccccc1`, the figure is 208 to 210 °C; as for `CNC(=O)[C@]1(n2cnc3c(NCc4cccc(I)c4)nc(Cl)nc32)SC[C@H](O)[C@@H]1O`, 205 to 207 °C; as for `COc1cc(OC)c(C2CCN(C)CC2OC(C)=O)c(Oc2cccs2)c1C(C)=O` (configuration not stated), 153 to 154 °C. The value for `CC=CCn1c(Nc2cc(C)cc(C)c2)c(CC)c(=O)[nH]c1=O` was 190 to 192 °C; that for `O=C(Nc1ccc(-n2nc(C(F)(F)F)cc2C(F)(F)F)cc1)c1ccccc1C(F)(F)F` was 133 to 135 °C; that for `CCOC(=O)C(=CC=C1CCc2ccccc2C1=O)N(C)C` was 123 °C.

`CC(=Cc1ccc(OCCCN(C)C)cc1)C(=O)O` gave a melting point above 190 °C. As for `COCc1nc2c(N)nc3cc(CCCNS(C)(=O)=O)ccc3c2n1CC(C)(C)O`, the figure is 205 to 207 °C; as for `O=C(Nc1ncco1)c1c(C(F)(F)F)nc2c(C(F)(F)F)cccc2c1O`, 258 °C; as for `CCCCCC(CC(=O)Nc1c(C(C)C)cccc1C(C)C)c1cccc2c1OCO2` (configuration not stated), 114 to 115 °C. As for `CC1(C)COC(=O)N1c1nc(-c2ccc(C#N)c(F)c2)cs1`, the figure is 204 to 206 °C; as for `CCCCc1nc2cc(Cl)c(Cl)cc2n1Cc1ccc(C(=O)O)cc1`, 244 to 246 °C; as for `COc1ccc(C(=O)Nc2ncnc3c2ncn3[C@H]2CC[C@H](CC(=O)O)C[C@@H]2NC(=O)OC(C)(C)C)cc1`, 238 to 239 °C. The value for `Cc1cccc(CNc2c(NC(C)(C)C)c(=O)c2=O)c1C` was 237 to 239 °C; that for `COC(=O)C(Cc1c[nH]c2ccccc12)NC(=O)c1ccc2c(c1)OCO2` (configuration not stated) was 123 to 124 °C; that for `CCOC(=O)c1c(-c2ccc(N)cc2)c(C#N)c(=O)n2ccccc12` was 260 to 262 °C. The compound `CC(C)COC(NC(=O)OCc1ccccc1)C(=O)O` (configuration not stated) came in with a melting point of 66 to 68 °C. The compound `COc1ccc(NC(=NC#N)NC(NC(=O)c2ccc(Cl)cc2)C(C)(Cl)Cl)c(OC)n1` (configuration not stated) yielded a melting point of 162 to 163 °C.

The compound `CC(C)(CO)NS(=O)(=O)c1cccc(Br)c1` displayed a melting point of 138 °C. `O=S(CCO)CCC(c1cc(F)ccc1F)S(=O)(=O)c1ccc(Cl)cc1` (configuration not stated) gave a melting point of 124 to 132 °C. As for `CC(C)(C)OC(=O)Nc1cc(OCc2ccccc2)cc(OCc2ccccc2)c1`, the figure is 96 to 98 °C; as for `O=C(O)C(=O)c1ccc(C(=O)NCCOc2ccc3ccccc3c2)cc1`, 173 to 175 °C; as for `COCCC1(C(=O)N[C@@H](Cc2ccc(N3C(=O)c4ccc(C#N)cc4C3=O)cc2)C(=O)O)CCCC1`, 143 to 146 °C.

Compound `Nc1ncnc2c1ncn2C1CC(=CF)C(O)C1O` (configuration not stated) returned a melting point of 167 to 169 °C. As for `OCCn1cc(-c2ccc3nnn(Cc4c(F)ccc(F)c4Cl)c3n2)cn1`, the figure is 143 to 145 °C; as for `Cc1ccc(N2C(=S)SCC2(C)O)nc1` (configuration not stated), 108 °C; as for `O=C(O)c1cc(OCCCOc2ccc(-c3ccccc3)cc2)cc(OCCCOc2ccc(-c3ccccc3)cc2)c1`, 186 to 187 °C.

`CCSC1(CCO)C(=O)Nc2ccc(Cl)cc21` (configuration not stated) registered a melting point of 132 to 135 °C.

`NC(=O)c1nnc2n1-c1ccc(Cl)cc1C(c1ccccc1Cl)=NC2` came in with a melting point of 226 to 228 °C. As for `CC(C)(S)CN(Cc1ccccc1)C(=O)CCC(=O)O`, the figure is 123 to 126 °C; as for `COc1cc2c(cc1OC)C(=O)C(CN1CCC3(CC1)C(=O)NCN3c1ccccc1)C2` (configuration not stated), 174 to 177 °C; as for `O=C(Cc1ccnc2c1NC(=O)c1cccnc1N2C1CC1)c1ccccc1`, 195 to 197 °C. The value for `COc1ccc(NC(=O)N(O)C2CCCCCCC2)cc1` was 166 to 167 °C.

`CCCCC(CC)n1c(CC)nc2c(-c3c(C)cc(C)cc3C)ncnc21` (configuration not stated) displayed a melting point of 99 to 100 °C. As for `CC1(c2cccc(OCc3ccccc3)c2)C(=O)Nc2cc(Cl)cc(Cl)c2C1=O` (configuration not stated), the figure is 201 to 203 °C; as for `Cn1c(=O)on(-c2ccccc2)c1=O`, 98 to 99 °C; as for `O=S(=O)(NCCCCOc1ccc(-n2cnnn2)cc1)c1cccc2nsnc12`, 142 to 143 °C.

Turning to `Cc1nc(-c2ccccc2)nc(-c2ccncc2)c1N`, the melting point lay within 208 to 209 °C. As for `Cc1cc(Sc2ccccc2)ccc1[N+](=O)[O-]`, the figure is 69 to 75 °C. Consider `O=C(Cl)c1csc(=O)[nH]1`, for which the melting point is 184 °C. As for `NC(=O)c1nc(-c2cccc(O)c2)nc2c1[nH]c(=O)n2CC1CCOCC1`, the figure is 363 to 365 °C.

For `CCCCNC(=S)Nc1ccc(NNC=O)cc1`, the melting point fell in the range of 129 to 131 °C. As for `CC12CCC3c4ccc(C(=O)O)cc4CCC3C1CCC2C(=O)CCc1ccc(C(=O)O)cc1` (configuration not stated), the figure is 285 to 290 °C; as for `CCC(CC)C(NS(=O)(=O)c1ccc(Cl)s1)c1ncnn1Cc1ccc(C)cc1` (configuration not stated), 103 to 104 °C; as for `Cc1c(Cc2cccc(C(F)(F)F)c2)sc2c(-c3cc(F)cc(C(N)=O)c3)cccc12`, 146 to 147 °C.

`O=S(=O)(c1nc[nH]n1)C(F)(F)Br` gave a melting point of 176 to 177 °C.

`COc1ccc(CNc2n[nH]c3ncnc(Nc4cccc(Cl)c4)c23)c(OC)c1OC`: the melting point is 168 to 169 °C. The value for `CCOC(=O)c1cnn(-c2ccccn2)c1C#N` was 112 to 114 °C; that for `CCCCS(=O)(=O)Nc1ccc(Oc2ccc3cccnc3c2)cc1` was 168 °C. For `COc1cc(-c2nc3ccc(OCC(C)N(C)C)cc3n2Cc2ccccc2Br)cc(OC)c1OC` (configuration not stated), the melting point stood at 152 °C.

In turn, `Nc1cc2c(cc1CCN1CCN(c3cccc(C(F)(F)F)c3)CC1)OCO2` had a melting point of 88 °C. `O=S(CCCCCOc1ccc(C2=C(c3ccc(O)cc3)CCCc3cc(O)ccc32)cc1)CCCC(F)(F)C(F)(F)F` (configuration not stated): the melting point is 165 to 168 °C. The compound `Cc1nc(N2CCN(CCC3CC3)C2=O)sc1C(=O)NCc1ccccc1` displayed a melting point of 137 to 138 °C. The value for `CCCCCCCCCN1C(=O)c2ccc3c4cccc5cccc(c6ccc(c2c36)C1=O)c54` was 201 °C; that for `Cc1c(C(=O)Nc2ccc(OCC(C)(C)C)c(C#N)c2)cnn1C` was 187 to 188 °C.

In the case of `CC(COc1cccc2oc(C#N)cc(=O)c12)OC=O` (configuration not stated), the melting point fell in the range of 113 to 115 °C. As for `CC(=O)Nc1ccc2ccccc2c1-c1c(P(c2ccccc2)c2ccccc2)ccc2ccccc12`, the figure is 105 °C; as for `CN(C)C(=O)CC1CN=C(c2cc3cccc(N(C)S(=O)(=O)c4cccs4)c3[nH]2)S1` (configuration not stated), 153 to 154 °C; as for `CCCCCC#CCOc1ccc2ccc(=O)oc2c1`, 74 to 75 °C. The value for `CN(C)c1ccc(I)nn1` was 135 °C.

Take `COC(=O)c1c(N)ncn1C1c2ccccc2CCC1(C)C` (configuration not stated): the melting point is 193 to 195 °C. Turning to `CCC(CC)N(C)Cc1ccc(NC(=O)C2=Cc3cc(-c4ccc(C)cc4)ccc3SCC2)cc1`, the melting point lay in the range of 136 to 137 °C. As for `CCOC(=O)c1nc(N)sc1-c1nc2cc(C)ccn2c1C`, the figure is 226 to 228 °C; as for `Nc1ccc(C(=O)N2Cc3ccccc3Cc3cc(Cl)ccc32)cc1`, 211 to 214 °C; as for `CNC(=O)COc1cccc(CCNC(=O)/C=C/c2cccnc2)c1`, 140 to 141 °C. As for `CCOC(=O)/C=C/c1cc(OCc2cn(-c3ccc(C(F)(F)F)cn3)nc2C(C)C)nn1C`, the figure is 105 to 106 °C; as for `CC(C)(C)OC(=O)CNc1ccccc1F`, 70 °C; as for `Cc1ccc(S(=O)(=O)N[C@@H](C)C(=O)N[C@@H](Cc2ccccc2)C(=O)O)cc1`, 105 to 108 °C.

For `CC(C)(Sc1nnnn1-c1ccccc1)c1ccc([N+](=O)[O-])cc1`, the melting point amounted to 122 °C.
